In patent US9982005B2, “Macrolides and methods of their preparation and use” (President and Fellows of Harvard College, priority 2013, dated 2018) one finds MIC data, which are given here for 3 compounds.

Molecules are shown by their SMILES. ≈ marks a conversion by molar mass, not a printed value. Like-named read-outs stand apart in the source and are kept apart here. Some results are limits rather than exact numbers.

What all share (format): cell-based
Experiment [1] concerns SA101 S. aureus ATCC29213. Description: broth dilution MIC, S. aureus SA101. Particulars: Staphylococcus aureus, ATCC29213, SA101 S. aureus ATCC29213; read-out: MIC. From the text:
(§1) We have collected MIC data for a total of 50 novel macrolides that this platform has produced against over 21 unique strains of B. subtilis, E. coli, S. aureus, S. pneumoniae, and H. influenzae, including several multidrug-resistant strains, with a special focus on macrolide resistant mechanisms (vide supra). Azithromycin was included as a control macrolide. CLSI standard procedures for broth dilution MIC determination were used. […] These genotypes can be constitutive or inducible. The finding that C4-epi (unnatural) isomers of the “azaketolide” macrolide class have enhanced activities relative to C4 natural isomers is very exciting.
Background: In broth dilution the organism is exposed to a series of concentrations in liquid medium.

For the next experiment, the system named is A. baumannii strains. Put plainly: MIC against A. baumannii strains (Table M8). Particulars: Acinetobacter baumannii, BAA747, A. baumannii BAA747-1.
The subject of a further experiment is K. pneumoniae strains. Description: MIC against K. pneumoniae strains (Table M8). Particulars: Klebsiella pneumoniae, K. pneumoniae 10031.
Another experiment has as its system BS1725 B. subtilis ermC. Put plainly: broth dilution MIC, B. subtilis BS1725. The note with it: Bacillus subtilis.
From the text: as §1

A further experiment has as its system EC882 E. coli imp. Description: broth dilution MIC, E. coli EC882. The note with it: Escherichia coli.
From the text: as §1

For a further experiment, the system named is H. influenzae strains. Description: MIC against H. influenzae strains (Table M8). Particulars: Haemophilus influenzae. In a few lines:
(§2)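 Testing used CLSI standard broth dilution; the lowest inhibitory concentration was taken as the MIC.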

In another experiment the test system is E. coli strains. Description: MIC against E. coli strains (Table M7). Particulars: Escherichia coli, ATCC25922, E. coli ATCC 25922. In a few lines: as §2
The subject of experiment [2] is BS1723 B. subtilis BS168 WT wild type. Put plainly: broth dilution MIC, B. subtilis BS1723. Particulars: Bacillus subtilis, BS1723 B. subtilis BS168 WT wild type; read-out: MIC.
From the text: as §1

The subject of a further experiment is EC107 E. coli ATCC25922. Description: broth dilution MIC, E. coli EC107. Particulars: Escherichia coli, read-out: MIC.
From the text: as §1

A further experiment deals with S. aureus strains. Description: MIC against S. aureus strains (Table M7). The note with it: Staphylococcus aureus. In short, it runs like this:
as §2

Another experiment concerns EC878 E. coli tolC. Put plainly: broth dilution MIC, E. coli EC878. The note with it: Escherichia coli.
From the text: as §1

A further experiment concerns S. pneumoniae strains. Put plainly: MIC against S. pneumoniae strains (Tables M7, M8). The note with it: Streptococcus pneumoniae. The source says:
CLSI standard procedures for broth dilution MIC determination were used. […] These genotypes can be constitutive or inducible.

The test system of another experiment is E. faecalis strains. Description: MIC against E. faecalis strains (Table M8). The note with it: Enterococcus faecalis, E. faecalis 29212.
Where [3] appears, read: H. influenzae 49247, read-out: MIC H. influenzae (49247).
Setting [4] is: H. influenzae 49766, read-out: MIC H. influenzae (49766).
Setting [5] is: ATCC29213, S. aureus ATCC 29213, read-out: MIC S. aureus (ATCC 29213).
The mark [6] stands for this setting: S. aureus 506, read-out: MIC S. aureus (506).
The mark [7] stands for this setting: S. aureus 1708, read-out: MIC S. aureus (1708).
[8] abbreviates: USA300, S. aureus USA300, read-out: MIC S. aureus (USA300).
The mark [9] stands for this setting: S. pneumoniae 160, read-out: MIC S. pneumonae (160).
[10] abbreviates: S. pneumoniae 1509, read-out: MIC S. pneumoniae (1509).
The mark [11] stands for this setting: S. pneumoniae 1533, read-out: MIC S. pneumoniae (1533).
The mark [12] stands for this setting: S. pneumoniae 1537, read-out: MIC S. pneumoniae (1537).
Where [13] appears, read: S. pneumoniae 49619, read-out: MIC S. pneumoniae (49619).

Consider `CC[C@H]1OC(=O)[C@H](C)C(=O)[C@H](C)[C@@H](O[C@@H]2OC(C)CC(N(C)C)C2O)[C@](C)(OC)C[C@@H](C)CN[C@H](C)[C@H]2N(CCCCn3cc(-c4nc5ccccc5s4)nn3)C(=O)O[C@]12C` (some centres unmarked) [FSM-20711], for which the MIC in experiment [1] is 2 µg/mL (≈ 2.3 µM); against A. baumannii strains, above 32 µg/mL; in the experiment on K. pneumoniae strains, 4 µg/mL (≈ 4.6 µM); in the experiment on BS1725 B. subtilis ermC (BS1725 B. subtilis ermC (+ery)), 32 µg/mL (≈ 36.8 µM); in the experiment on EC882 E. coli imp, 0.0312 µg/mL (≈ 0.0359 µM); in the experiment on H. influenzae strains (setting [3]) it was 1 µg/mL (≈ 1.15 µM). In addition, the MIC in the experiment on H. influenzae strains (setting [4]) was 8 µg/mL (≈ 9.19 µM); in the experiment on E. coli strains, 16 µg/mL (≈ 18.4 µM); in experiment [2], 2 µg/mL (≈ 2.3 µM); with EC107 E. coli ATCC25922, 16 µg/mL (≈ 18.4 µM); with S. aureus strains (setting [5]), 4 µg/mL (≈ 4.6 µM); in the experiment on S. aureus strains (setting [6]) it was above 32 µg/mL. The MIC with S. aureus strains (setting [7]) is 4 µg/mL (≈ 4.6 µM); in the experiment on S. aureus strains (setting [8]), 4 µg/mL (≈ 4.6 µM); with EC878 E. coli tolC, 0.5 µg/mL (≈ 0.575 µM); with S. pneumoniae strains (setting [9]), 0.125 µg/mL (≈ 0.144 µM); in the experiment with S. pneumoniae strains (setting [10]), above 32 µg/mL; in the experiment with S. pneumoniae strains (setting [11]), above 32 µg/mL. Also, the values for the MIC in the experiment on S. pneumoniae strains (setting [12]), in the experiment on S. pneumoniae strains (setting [13]) and in the experiment on E. faecalis strains were above 32 µg/mL, 0.5 µg/mL (≈ 0.575 µM) and 1 µg/mL (≈ 1.15 µM), respectively.

On to `CC[C@H]1OC(=O)[C@H](C)C(=O)C[C@@H](O[C@@H]2OC(C)CC(N(C)C)C2O)[C@@](C)(OC)C[C@@H](C)CN[C@H](C)[C@H]2N(CCCCn3cc(-c4cccc(N)c4)nn3)C(=O)O[C@]12C` (some centres unmarked) [FSM-30502], for which the MIC (in [1]; against A. baumannii strains; in the experiment on K. pneumoniae strains; against BS1725 B. subtilis ermC (BS1725 B. subtilis ermC (+ery)); against BS1725 B. subtilis ermC (BS1725 B. subtilis ermC (−ery)); in the experiment on EC882 E. coli imp) was above 32 µg/mL each time. Further, the MIC in the experiment on H. influenzae strains (setting [3]) was 16 µg/mL (≈ 19.7 µM); in the experiment with H. influenzae strains (setting [4]) it was above 32 µg/mL; with E. coli strains it was above 32 µg/mL; in experiment [2] it was above 32 µg/mL; in the experiment on EC107 E. coli ATCC25922 it was above 32 µg/mL; in the experiment with S. aureus strains (setting [5]), above 32 µg/mL. Besides, the MIC with S. aureus strains (setting [6]), with S. aureus strains (setting [7]), with S. aureus strains (setting [8]), against EC878 E. coli tolC, in the experiment on S. pneumoniae strains (setting [9]) and in the experiment with S. pneumoniae strains (setting [10]) was above 32 µg/mL throughout. Further, the MIC in the experiment on S. pneumoniae strains (setting [11]), in the experiment on S. pneumoniae strains (setting [12]), with S. pneumoniae strains (setting [13]) and against E. faecalis strains was above 32 µg/mL throughout.

On to `CC[C@H]1OC(=O)[C@H](C)C(=O)[C@H](C)[C@@H](O[C@@H]2OC(C)CC(N(C)C)C2O)[C@](C)(OC)C[C@@H](C)CN(C(C)=O)[C@H](C)[C@H]2N(CCCCn3cc(-c4cccc(N)c4)nn3)C(=O)O[C@]12C` (some centres unmarked) [FSM-20767], for which the MIC in [1] is 16 µg/mL (≈ 18.4 µM); with A. baumannii strains, above 32 µg/mL; with K. pneumoniae strains, 32 µg/mL (≈ 36.8 µM); in the experiment on BS1725 B. subtilis ermC (BS1725 B. subtilis ermC (+ery)) it was above 32 µg/mL; with BS1725 B. subtilis ermC (BS1725 B. subtilis ermC (−ery)), 8 µg/mL (≈ 9.19 µM); in the experiment on EC882 E. coli imp it was 1 µg/mL (≈ 1.15 µM). The MIC was 8 µg/mL (≈ 9.19 µM) with H. influenzae strains (setting [3]); 16 µg/mL (≈ 18.4 µM) in the experiment on H. influenzae strains (setting [4]); above 32 µg/mL against E. coli strains; 16 µg/mL (≈ 18.4 µM) in experiment [2]; above 32 µg/mL with EC107 E. coli ATCC25922; 16 µg/mL (≈ 18.4 µM) in the experiment on S. aureus strains (setting [5]). Moreover, the MIC with S. aureus strains (setting [6]) is above 32 µg/mL; in the experiment with S. aureus strains (setting [7]) it was 32 µg/mL (≈ 36.8 µM); in the experiment on S. aureus strains (setting [8]), 32 µg/mL (≈ 36.8 µM); against EC878 E. coli tolC, 4 µg/mL (≈ 4.6 µM); in the experiment on S. pneumoniae strains (setting [9]), 2 µg/mL (≈ 2.3 µM); in the experiment on S. pneumoniae strains (setting [10]), above 32 µg/mL. In addition, the MIC in the experiment with S. pneumoniae strains (setting [11]) was above 32 µg/mL; with S. pneumoniae strains (setting [12]) it was above 32 µg/mL; with S. pneumoniae strains (setting [13]), 0.5 µg/mL (≈ 0.575 µM); in the experiment with E. faecalis strains, 4 µg/mL (≈ 4.6 µM).
